Here are results for 1 molecule from patent US20220241278A1 (InCarda Therapeutics, Inc., priority 2021, published 2022).

Data set [1] is described as follows: Appearance of about 30 mg/mL imatinib free base in 30% SBEβCD, 50 mM phosphate buffer at different pH. The note with it: about 30 mg/mL in 30% SBβCD.
Data set [2] in a line: Rat pharmacokinetics: lung tissue and plasma concentration after IV or IT administration. The note with it: IV data, 60 min sample collection period. The class given is in vivo, Sprague Dawley rats. On the procedure:
Lung tissue and blood were collected for analysis.
Test System: 72 male Sprague Dawley rats (Charles River Laboratories) were used for the study, 8 weeks old, body weight range at study start was 245.8-317 g.
Experimental Design and Execution: In brief, after the animals were transferred to study, all animals were randomly assigned to treatment groups per the study design below. Animals were treated either via intravenous (IV) administration of formulation R1, or via intratracheal (IT) administration for formulation R2 of the test article.
Plasma and lung concentration vs. time data was analyzed using JMP version 15.2.0. Averages for each time point are reported for groups/time points that have a minimum of 2 animals.
The Therapeutic Advantage (Rd) in Table 8 was calculated using the following equation: […]

Regarding `Cc1ccc(NC(=O)c2ccc(CN3CCN(C)CC3)cc2)cc1Nc1nccc(-c2cccnc2)n1` [imatinib free base, imatinib], the “appearance of the mixture” value is listed as “clear solutions” in data set [1] (pH 3), “clear solutions” in data set [1] (pH 5) and “white suspension” in data set [1] (pH 7). For the same molecule, the “distribution between lung tissue and plasma” value in data set [2] was “preferentially accumulates in the lung tissue”.
